The record followed here is ChEMBL document CHEMBL4842370, “Discovery of 1-(phenylsulfonyl)-1H-indole-based multifunctional ligands targeting cholinesterases and 5-HT6 receptor with anti-aggregation properties against amyloid-beta and tau” (Eur J Med Chem, 2021).

Calls of active or inactive are those of the source. The rule behind the calls is not given here.

For data set [1], the target named is T1, Amyloid-beta precursor protein (Homo sapiens, UniProt P05067). The data set can be described thus: Inhibition of amyloid beta (1 to 42) (unknown origin) aggregation expressed in Escherichia coli BL21 (DE3) at 10 uM incubated for 24 hrs by microplate reader assay relative to control.
T1 sequence (P05067 whole entry): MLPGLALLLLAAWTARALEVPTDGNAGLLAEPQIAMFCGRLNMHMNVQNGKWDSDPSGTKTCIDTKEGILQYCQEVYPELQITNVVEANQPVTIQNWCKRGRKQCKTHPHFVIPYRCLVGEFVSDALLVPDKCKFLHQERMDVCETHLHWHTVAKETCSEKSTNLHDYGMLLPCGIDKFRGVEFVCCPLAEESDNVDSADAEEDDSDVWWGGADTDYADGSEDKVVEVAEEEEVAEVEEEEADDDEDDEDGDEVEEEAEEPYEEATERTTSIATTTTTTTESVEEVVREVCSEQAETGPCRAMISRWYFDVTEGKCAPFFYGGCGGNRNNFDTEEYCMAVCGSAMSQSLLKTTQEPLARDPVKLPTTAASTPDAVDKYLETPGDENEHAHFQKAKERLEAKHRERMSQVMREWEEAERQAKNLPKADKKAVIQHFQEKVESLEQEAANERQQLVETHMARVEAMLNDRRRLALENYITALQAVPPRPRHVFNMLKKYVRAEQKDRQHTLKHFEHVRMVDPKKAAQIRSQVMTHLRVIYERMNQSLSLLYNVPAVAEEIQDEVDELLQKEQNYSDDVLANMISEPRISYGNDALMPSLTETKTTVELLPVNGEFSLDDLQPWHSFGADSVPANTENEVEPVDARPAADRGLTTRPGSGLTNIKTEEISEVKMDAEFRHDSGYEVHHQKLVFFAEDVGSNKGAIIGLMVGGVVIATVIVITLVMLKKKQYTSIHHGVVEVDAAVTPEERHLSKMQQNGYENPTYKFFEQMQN
For data set [2], the target named is T2, 5-hydroxytryptamine receptor 6 (Homo sapiens, UniProt P50406). The data set can be described thus: Displacement of [3H]-LSD from human 5HT6R expressed in CHO-K1 cell membranes incubated for 1 hr by scintillation counter method. Also noted: species or system Membrane.
T2 sequence (P50406 whole entry): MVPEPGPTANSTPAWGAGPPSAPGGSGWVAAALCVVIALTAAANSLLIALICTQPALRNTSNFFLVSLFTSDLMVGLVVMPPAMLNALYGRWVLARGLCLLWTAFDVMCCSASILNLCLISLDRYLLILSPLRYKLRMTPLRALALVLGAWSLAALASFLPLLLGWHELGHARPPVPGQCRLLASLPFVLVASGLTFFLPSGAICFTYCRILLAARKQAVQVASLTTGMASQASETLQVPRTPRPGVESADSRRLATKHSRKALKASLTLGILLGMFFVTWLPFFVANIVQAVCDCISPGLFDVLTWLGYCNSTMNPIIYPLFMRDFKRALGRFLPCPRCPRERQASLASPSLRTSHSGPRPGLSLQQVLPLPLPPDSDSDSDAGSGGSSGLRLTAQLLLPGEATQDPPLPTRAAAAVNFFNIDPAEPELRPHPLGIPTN
The target of a further data set is Cholinesterase (Equus caballus, UniProt P81908).
Sequence of Cholinesterase (P81908 whole entry): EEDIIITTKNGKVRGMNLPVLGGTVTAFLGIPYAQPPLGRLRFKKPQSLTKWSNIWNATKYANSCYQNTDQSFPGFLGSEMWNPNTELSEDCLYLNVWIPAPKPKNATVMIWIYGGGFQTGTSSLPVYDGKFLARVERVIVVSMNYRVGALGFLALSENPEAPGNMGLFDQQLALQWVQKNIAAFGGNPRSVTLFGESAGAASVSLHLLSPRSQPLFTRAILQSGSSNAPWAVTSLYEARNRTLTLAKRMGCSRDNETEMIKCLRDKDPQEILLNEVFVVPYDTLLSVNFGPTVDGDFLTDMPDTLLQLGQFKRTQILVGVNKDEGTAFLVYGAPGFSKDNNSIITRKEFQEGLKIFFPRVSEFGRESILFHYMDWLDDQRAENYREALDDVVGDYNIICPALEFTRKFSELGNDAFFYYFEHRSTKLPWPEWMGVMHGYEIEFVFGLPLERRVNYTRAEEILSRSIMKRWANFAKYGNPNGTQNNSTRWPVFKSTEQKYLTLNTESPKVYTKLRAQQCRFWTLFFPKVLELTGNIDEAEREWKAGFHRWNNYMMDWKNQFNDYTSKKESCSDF
The target in data set [3] is T1, Amyloid-beta precursor protein. Nature of the data set: Inhibition of HFIP-pretreated human recombinant amyloid beta (1 to 42) self aggregation at 10 uM incubated up to 48 hrs under shaking condition and measured every 3 min by Thioflavin T based fluorescence assay relative to control.
Another data set concerns the target Acetylcholinesterase (Electrophorus electricus, UniProt O42275). Nature of the data set: Inhibition of electric eel AChE using acetylthiocholine iodide as substrate incubated for 5 mins followed by substrate addition and measured after 5 mins by spectrophotometric based Ellman's method.
Another data set is filed under the species Homo sapiens. Nature of the data set: Inhibition of tau protein (unknown origin) expressed in Escherichia coli BL21 (DE3) at 10 uM incubated for 24 hrs by microplate reader assay relative to control.
Data set [4] addresses T2, 5-hydroxytryptamine receptor 6. The data set can be described thus: Antagonist activity at human 5HT6R expressed in 1321N1 cells assessed as inhibition of […] cAMP production measured after 30 mins by TR-FRET assay. In kind it is functional, cell-based. Particulars: filed as antagonist. In general terms: Changes in cAMP serve as a functional read-out for many G protein-coupled receptors.

The next data set addresses Cytochrome P450 2D6 (Homo sapiens, UniProt P10635). Nature of the data set: Inhibition of CYP2D6 (unknown origin) at <=10 uM. In kind it is ADME.
A short description of data set [5]: in vitro. The following applies: PAMPA. On the technique in general: PAMPA measures passive passage across an artificial lipid membrane.
Description: Permeability coefficient of the compound in PBS buffer incubated for 5 hrs by PAMPA-based LC-MS analysis
The target in data set [6] is T1, Amyloid-beta precursor protein. Nature of the data set: Inhibition of HFIP-pretreated human recombinant amyloid beta (1 to 42) self aggregation incubated up to 48 hrs under shaking condition and measured every 3 min by Thioflavin T based fluorescence assay.
The next data set addresses Cytochrome P450 3A4 (Homo sapiens, UniProt P08684). Nature of the data set: Inhibition of CYP3A4 (unknown origin) at <=10 uM. Type of data set: ADME.
The next data set has as its system HepG2. The data set can be described thus: Cytotoxicity against human HepG2 cells assessed as cell reduction in cell viability incubated for 48 hrs by MTS assay. Particulars: HepG2, 48 h. In kind it is cell-based.
Data set [7] can be described thus: in vitro. The following applies: mouse, liver microsomes.

Usually inhibition stands for the share of the control response that was lost under treatment. One may read the Ki as the dissociation constant of the complex between target and ligand, obtained from inhibition or displacement. High values mean lower affinity, low ones higher affinity. As usually defined, the IC50 is the midpoint of a concentration-inhibition curve. What is called Kb is the affinity of an antagonist, worked out from how it opposes an agonist. By Papp is commonly meant a coefficient for how fast a substance crosses the barrier. A lower Papp goes with slow passage.

Sequence of Acetylcholinesterase (O42275 whole entry): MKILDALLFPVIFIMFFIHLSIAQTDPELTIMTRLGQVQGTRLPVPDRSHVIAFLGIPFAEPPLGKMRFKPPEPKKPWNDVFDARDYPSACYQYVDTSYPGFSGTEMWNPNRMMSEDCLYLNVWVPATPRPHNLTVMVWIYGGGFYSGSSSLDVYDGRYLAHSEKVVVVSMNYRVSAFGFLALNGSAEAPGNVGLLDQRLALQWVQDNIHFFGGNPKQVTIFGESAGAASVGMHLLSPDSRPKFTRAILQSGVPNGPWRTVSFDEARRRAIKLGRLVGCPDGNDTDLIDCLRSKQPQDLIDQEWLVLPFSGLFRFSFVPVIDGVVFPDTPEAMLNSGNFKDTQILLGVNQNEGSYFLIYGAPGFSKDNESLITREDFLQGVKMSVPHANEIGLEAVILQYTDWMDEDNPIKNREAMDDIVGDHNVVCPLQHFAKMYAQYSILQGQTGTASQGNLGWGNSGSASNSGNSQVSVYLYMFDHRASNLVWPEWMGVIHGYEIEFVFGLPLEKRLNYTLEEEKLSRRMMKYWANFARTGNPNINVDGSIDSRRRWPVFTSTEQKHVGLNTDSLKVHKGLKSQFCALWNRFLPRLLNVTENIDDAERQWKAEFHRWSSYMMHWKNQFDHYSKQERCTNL
Sequence of Cytochrome P450 2D6 (P10635 whole entry): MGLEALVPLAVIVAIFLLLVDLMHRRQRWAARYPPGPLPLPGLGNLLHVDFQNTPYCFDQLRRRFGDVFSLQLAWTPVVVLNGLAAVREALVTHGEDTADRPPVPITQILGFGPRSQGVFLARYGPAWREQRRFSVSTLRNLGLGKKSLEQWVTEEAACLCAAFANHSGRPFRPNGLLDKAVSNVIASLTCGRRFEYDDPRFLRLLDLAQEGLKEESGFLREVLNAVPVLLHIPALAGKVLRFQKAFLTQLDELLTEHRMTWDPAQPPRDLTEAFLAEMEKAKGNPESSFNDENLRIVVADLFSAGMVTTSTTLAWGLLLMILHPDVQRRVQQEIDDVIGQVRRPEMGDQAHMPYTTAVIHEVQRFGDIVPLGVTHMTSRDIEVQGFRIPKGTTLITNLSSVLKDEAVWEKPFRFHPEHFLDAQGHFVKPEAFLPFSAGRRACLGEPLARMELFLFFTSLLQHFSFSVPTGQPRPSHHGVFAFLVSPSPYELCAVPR
Sequence of Cytochrome P450 3A4 (P08684 whole entry): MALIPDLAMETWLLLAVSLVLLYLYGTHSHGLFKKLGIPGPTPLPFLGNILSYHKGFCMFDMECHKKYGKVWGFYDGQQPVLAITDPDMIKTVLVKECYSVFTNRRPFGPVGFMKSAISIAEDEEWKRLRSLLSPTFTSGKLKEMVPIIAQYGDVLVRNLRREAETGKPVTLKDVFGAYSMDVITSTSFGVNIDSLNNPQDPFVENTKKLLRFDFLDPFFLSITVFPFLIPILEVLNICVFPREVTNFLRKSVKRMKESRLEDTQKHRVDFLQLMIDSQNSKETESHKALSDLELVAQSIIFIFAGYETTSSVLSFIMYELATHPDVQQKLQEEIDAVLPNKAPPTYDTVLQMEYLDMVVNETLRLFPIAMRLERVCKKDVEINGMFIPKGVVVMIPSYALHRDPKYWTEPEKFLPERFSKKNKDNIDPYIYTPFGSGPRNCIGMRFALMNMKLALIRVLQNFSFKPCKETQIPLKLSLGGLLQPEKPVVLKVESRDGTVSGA

With `O=S(=O)(c1ccccc1)n1ccc2c(OCCNCCNCc3cc(Cl)cc(Cl)c3)cccc21`, the inhibition in [1] was determined as 40.9%; in data set [3], 57.2%; in the data set listed under Homo sapiens, 62.3%. Further, the Ki in [2] came out at 0.011 µM. Also, the IC50 was 1.66 µM at Cholinesterase and “Not Active” against Acetylcholinesterase.

As to `O=S(=O)(c1ccccc1)n1ccc2c(OCCNCCCCCNc3c4c(nc5ccccc35)CCCC4)cccc21`, in [2], affinity was put at a Ki of 0.007 µM. The concentration for half-maximal inhibition (IC50) on Cholinesterase worked out at 0.00217 µM; on Acetylcholinesterase (read-out: IC50), 0.303 µM. For the same compound, the inhibition in data set [3] stood at 73.2%.

On to `O=S(=O)(c1ccccc1)n1ccc2c(OCCNCCNCc3ccccc3)cccc21`, for which the inhibition was 26.9% in data set [1], 55% in [3] and 58.1% in the data set filed under Homo sapiens. Further, in data set [2], the Ki amounted to 0.003 µM. Moreover, the Kb in [4] is 0.009 µM. Besides, the IC50 at Cholinesterase stood at 0.528 µM; at Acetylcholinesterase (read-out: IC50), 2.87 µM.

As to `COc1ccc(CNCCNCCOc2cccc3c2ccn3S(=O)(=O)c2ccccc2)cc1`, the inhibition in data set [1] is 41.4%; in [3], 63.8%; in the data set listed under Homo sapiens it was 64%. In data set [2], the affinity corresponds to a Ki of 0.0035 µM. The figures for the IC50 at Cholinesterase and against Acetylcholinesterase were 2.07 µM and “Not Active”, respectively.

In turn, `O=S(=O)(c1ccccc1)n1ccc2c(OCCNCCCCNCc3ccccc3)cccc21` displayed a Ki in [2] of 0.008 µM. For the same compound, the concentration for half-maximal inhibition (IC50) at Cholinesterase was 0.887 µM; against Acetylcholinesterase, “Not Active”. The inhibition in [3] stood at 41.8%.

As to `O=S(=O)(c1ccccc1)n1ccc2c(OCCNCCNCc3cccc(Cl)c3)cccc21`, the figures for the inhibition (in [1]; in data set [3]; in the data set filed under Homo sapiens) were 25.7%, 64.3% and 57.5%, respectively. Further, affinity in data set [2] was put at a Ki of 0.002 µM. Also, the figures for the IC50 against Cholinesterase and on Acetylcholinesterase (read-out: IC50) were 1.07 µM and 4.84 µM, respectively.

Consider `O=S(=O)(c1ccccc1)n1ccc2c(OCCNCCNCc3cccc(C(F)(F)F)c3)cccc21`, for which the inhibition in data set [1] is 37.1%; in the data set filed under Homo sapiens, 79.4%. Besides, affinity in data set [2] was put at a Ki of 0.0017 µM. In data set [4], the Kb is 0.007 µM. The IC50 is 2.12 µM against Cholinesterase and “Not Active” against Acetylcholinesterase. Besides, the inhibition entry in data set [3] is “inactive”.

`O=S(=O)(c1ccccc1)n1ccc2c(OCCNCCCCNc3c4c(nc5ccccc35)CCCC4)cccc21` registered a Ki in data set [2] of 0.0035 µM. The Kb in data set [4] worked out at 0.01 µM. Also, the IC50 against Cholinesterase was 0.00939 µM; at Acetylcholinesterase (read-out: IC50), 0.0575 µM. Further, the inhibition in data set [3] worked out at 77.4%.

`O=S(=O)(c1ccccc1)n1ccc2c(OCCNCCCNCc3ccccc3)cccc21` yielded a Ki in data set [2] of 0.008 µM. For the same compound, the IC50 against Cholinesterase is 0.701 µM; against Acetylcholinesterase, “Not Active”. The inhibition in data set [3] turned out to be 53.2%.

Regarding `O=[N+]([O-])c1ccc(CNCCNCCOc2cccc3c2ccn3S(=O)(=O)c2ccccc2)cc1`, the inhibition in data set [1] is 31.6%; in data set [3] it was 57.7%; in the data set listed under Homo sapiens it was 62.3%. Affinity in data set [2] was put at a Ki of 0.002 µM. Also, the IC50 against Cholinesterase is 4.26 µM; against Acetylcholinesterase it was “Not Active”.

`O=S(=O)(c1ccccc1)n1ccc2c(OCCNCCCNc3c4c(nc5ccccc35)CCCC4)cccc21`: the Ki in data set [2] is 0.01 µM. Also, the IC50 against Cholinesterase amounted to 0.0188 µM; on Acetylcholinesterase (read-out: IC50) it was 0.0209 µM. The inhibition in data set [3] was 61.1%.

For the compound `O=S(=O)(c1ccccc1)n1ccc2c(OCCNCCNCc3ccc(F)cc3)cccc21`, the inhibition in [1] worked out at 23.7%; in [3], 73.4%; in the data set listed under Homo sapiens, 58%. This compound also displayed a Ki in data set [2] of 0.0001 µM. The IC50 at Cholinesterase is 1.3 µM; at Acetylcholinesterase (read-out: IC50) it was 6210 µM.

With `Cc1cccc(CNCCNCCOc2cccc3c2ccn3S(=O)(=O)c2ccccc2)c1`, the inhibition in [1] turned out to be 48.5%; in data set [3], 57.4%; in the data set listed under Homo sapiens, 58.8%. The same compound gave a Ki in data set [2] of 0.002 µM. Besides, the IC50 against Cholinesterase was found to be 1.07 µM; at Acetylcholinesterase (read-out: IC50), 4470 µM.

In the case of `CCN(C)C(=O)Oc1cccc(CNCCNCCOc2cccc3c2ccn3S(=O)(=O)c2ccccc2)c1`, the “inhibition (INH)” value against Cytochrome P450 2D6 and at Cytochrome P450 3A4 was “Not Active” each time. Also, the Papp at 5 h in “in vitro [5]” was determined as 1.27 ×10⁻⁶ cm/s. In addition, the inhibition in [1] turned out to be 77.5%; in data set [3], 68.1%; in the data set listed under Homo sapiens, 68.7%. The compound further came in with a Ki in data set [2] of 0.015 µM. Further, the Kb in data set [4] amounted to 0.048 µM. Besides, the IC50 was 0.454 µM on Cholinesterase, “Not Active” on Acetylcholinesterase, 1.38 µM in data set [6] and 21.1 µM with HepG2. Further, the metabolised at 2 h in “in vitro [7]” is 40%.

As for `O=S(=O)(c1ccccc1)n1ccc2c(OCCNCCCCCNCc3ccccc3)cccc21`, the figures for the inhibition (in data set [1]; in [3]; in the data set filed under Homo sapiens) were 36.5%, 62.5% and 51.7%, respectively. In addition, the affinity in data set [2] corresponds to a Ki of 0.012 µM. Also, the IC50 against Cholinesterase is 0.394 µM; against Acetylcholinesterase it was “Not Active”.

On to `O=S(=O)(c1ccccc1)n1ccc2c(OCCNCCNc3c4c(nc5ccccc35)CCCC4)cccc21`, for which the “inhibition (INH)” value at Cytochrome P450 2D6 and on Cytochrome P450 3A4 was “Not Active” each time. The affinity in [2] corresponds to a Ki of 0.013 µM. Further, the IC50 amounted to 0.0244 µM against Cholinesterase, 0.00842 µM at Acetylcholinesterase (read-out: IC50), 1.1 µM in data set [6] and 79.6 µM in the data set on HepG2. Also, the inhibition in data set [3] amounted to 74.8%. In the data set “in vitro [7]”, this compound came in with a metabolised at 2 h of 72%.

For the compound `O=S(=O)(c1ccccc1)n1ccc2c(OCCNCCCCCCNc3c4c(nc5ccccc35)CCCC4)cccc21`, the Ki in data set [2] stood at 0.0086 µM. In addition, the figures for the IC50 on Cholinesterase and at Acetylcholinesterase (read-out: IC50) were 0.00407 µM and 0.0725 µM, respectively. Further, the inhibition in [3] amounted to 69.2%.

Take `O=S(=O)(c1ccccc1)n1ccc2c(OCCNCCNCc3ccccc3Cl)cccc21`: the inhibition in data set [1] was 27.5%; in data set [3], 57%; in the data set listed under Homo sapiens, 53.5%. The compound further showed a Ki in data set [2] of 0.003 µM. Moreover, the Kb in data set [4] was 0.058 µM. Besides, the figures for the IC50 against Cholinesterase and at Acetylcholinesterase (read-out: IC50) were 0.586 µM and 4.24 µM, respectively.

In the case of `CCN(C)C(=O)Oc1cccc([C@H](C)N(C)C)c1`, the inhibition in data set [3] came out at 86.6%.

As to `O=S(=O)(c1ccccc1)n1ccc2c(OCCNCCNCc3ccc(Cl)cc3)cccc21`, the values for the inhibition (in data set [1]; in data set [3]; in the data set listed under Homo sapiens) were 31.9%, 60.6% and 58.2%, respectively. In [2], this compound displayed a Ki of 0.001 µM. For the same compound, the IC50 at Cholinesterase was 1.99 µM; against Acetylcholinesterase it was “Not Active”.
